Source: ChEMBL document CHEMBL3885861, “Open TG-GATES”

Organism: Rattus norvegicus
Experiment: Open TG-GATES - Regimen: Daily Repeat
Assay type: toxicity, organism-based, Sprague-Dawley
Design: regimen Daily Repeat, gender Male, age 6 weeks
Conditions: in vivo, po, route gavage; for A/G / ALP / ALT / AST / BUN / CRE / Ca / Cl / DBIL / GLC / IP / K / LDH / Na / PL / RALB / TBIL / TC / TG / TP / gamma-GTP: tissue Plasma; for APTT / Bas / Eos / Fbg / Hb / Ht / Lym / MCH / MCHC / MCV / Mono / Neu / PT / Plat / RBC / Ret / WBC: tissue Blood; for KIDNEY_L / KIDNEY_R / KIDNEY_TOTAL: tissue Kidney; for LIVER: tissue Liver
[1] = 1 mg/kg, […], dose level Low, time 14 day
[2] = 1 mg/kg, […], dose level Low, time 28 day
[3] = 2 mg/kg, 72 h, dose level Middle, time 3 day
[4] = 2 mg/kg, […], dose level Middle, time 7 day
[5] = 2 mg/kg, […], dose level Middle, time 14 day
[6] = 2 mg/kg, […], dose level Middle, time 28 day
[7] = 5 mg/kg, 72 h, dose level High, time 3 day
[8] = 5 mg/kg, […], dose level High, time 7 day
[9] = 5 mg/kg, […], dose level High, time 14 day

## COc1ccc2c(c1)c(CC(=O)O)c(C)n2C(=O)c1ccc(Cl)cc1 [INDOMETHACIN]
[1]
  A/G: 1.8
  ALP: 725.6 IU/L
  ALT: 33.6 IU/L
  AST: 60.6 IU/L
  BUN: 19.6 mg/dL
  CRE: 0.6 mg/dL
  Ca: 10.5 mg/dL
  Cl: 105.6 meq/L
  DBIL: 0.004 mg/dL
  GLC: 194.8 mg/dL
  IP: 8.1 mg/dL
  K: 4.5 meq/L
  LDH: 87.2 IU/L
  Na: 139.4 meq/L
  PL: 165.2 mg/dL
  RALB: 4.2 g/dL
  TBIL: 0.3 mg/dL
  TC: 81.2 mg/dL
  TG: 161 mg/dL
  TP: 6.5 g/dL
  gamma-GTP: 1.4 IU/L
[2]
  A/G: 1.9
  ALP: 695.6 IU/L
  ALT: 31 IU/L
  AST: 62.6 IU/L
  BUN: 21.6 mg/dL
  CRE: 0.7 mg/dL
  Ca: 10.6 mg/dL
  Cl: 106.6 meq/L
  DBIL: 0.008 mg/dL
  GLC: 203.8 mg/dL
  IP: 7.8 mg/dL
  K: 4.2 meq/L
  LDH: 101.8 IU/L
  Na: 139.6 meq/L
  PL: 157.8 mg/dL
  RALB: 4.2 g/dL
  TBIL: 0.3 mg/dL
  TC: 77.8 mg/dL
  TG: 178.4 mg/dL
  TP: 6.5 g/dL
  gamma-GTP: 1.2 IU/L
[3]
  TERMINAL_BW: 238.9 g
  APTT: 16 s
  Bas: 0%
  Eos: 0.6%
  Fbg: 218.2 mg/dL
  Hb: 13.5 g/dL
  Ht: 40.5%
  Lym: 82.2%
  MCH: 21.1 pg
  MCHC: 33.4%
  MCV: 63.3 fL
  Mono: 6.4%
  Neu: 10.8%
  PT: 11.1 s
  Plat: 112.9 x10_4/uL
  RBC: 638.8 x10_4/ul
  Ret: 7.1%
  WBC: 126.4 x10_2/uL
  KIDNEY_L: 1.1 g
  KIDNEY_R: 1.1 g
  KIDNEY_TOTAL: 2.1 g
  LIVER: 11.6 g
  A/G: 2.1
  ALP: 1212.4 IU/L
  ALT: 32.8 IU/L
  AST: 62 IU/L
  BUN: 17 mg/dL
  CRE: 0.6 mg/dL
  Ca: 10.5 mg/dL
  Cl: 107.2 meq/L
  DBIL: 0.058 mg/dL
  GLC: 199.6 mg/dL
  IP: 8.3 mg/dL
  K: 4.9 meq/L
  LDH: 91.6 IU/L
  Na: 139.6 meq/L
  PL: 143.8 mg/dL
  RALB: 3.9 g/dL
  TBIL: 0.4 mg/dL
  TC: 78.2 mg/dL
  TG: 64.8 mg/dL
  TP: 5.7 g/dL
  gamma-GTP: 1 IU/L
[4]
  TERMINAL_BW: 284.3 g
  APTT: 16.5 s
  Bas: 0%
  Eos: 1%
  Fbg: 240 mg/dL
  Hb: 13.7 g/dL
  Ht: 41.4%
  Lym: 79.8%
  MCH: 20.6 pg
  MCHC: 33.1%
  MCV: 62.2 fL
  Mono: 8%
  Neu: 11.6%
  PT: 11.7 s
  Plat: 112.9 x10_4/uL
  RBC: 666.6 x10_4/ul
  Ret: 6.2%
  WBC: 126.6 x10_2/uL
  KIDNEY_L: 1.2 g
  KIDNEY_R: 1.2 g
  KIDNEY_TOTAL: 2.4 g
  LIVER: 14.5 g
  A/G: 2
  ALP: 1041.2 IU/L
  ALT: 33.2 IU/L
  AST: 61.4 IU/L
  BUN: 19.4 mg/dL
  CRE: 0.6 mg/dL
  Ca: 11.3 mg/dL
  Cl: 106.4 meq/L
  DBIL: 0.006 mg/dL
  GLC: 192.2 mg/dL
  IP: 8.4 mg/dL
  K: 4.8 meq/L
  LDH: 105.8 IU/L
  Na: 140 meq/L
  PL: 163.8 mg/dL
  RALB: 4.1 g/dL
  TBIL: 0.4 mg/dL
  TC: 88 mg/dL
  TG: 134.2 mg/dL
  TP: 6.3 g/dL
  gamma-GTP: 1 IU/L
[5]
  TERMINAL_BW: 341.8 g
  APTT: 16.2 s
  Bas: 0%
  Eos: 0.8%
  Fbg: 236.6 mg/dL
  Hb: 14.2 g/dL
  Ht: 43.1%
  Lym: 86.4%
  MCH: 20.5 pg
  MCHC: 32.9%
  MCV: 62.4 fL
  Mono: 5.8%
  Neu: 7.2%
  PT: 11.8 s
  Plat: 114.5 x10_4/uL
  RBC: 689.8 x10_4/ul
  Ret: 5.1%
  WBC: 134.6 x10_2/uL
  KIDNEY_L: 1.3 g
  KIDNEY_R: 1.3 g
  KIDNEY_TOTAL: 2.6 g
  LIVER: 16.3 g
  A/G: 1.9
  ALP: 898.8 IU/L
  ALT: 32 IU/L
  AST: 53.2 IU/L
  BUN: 22.6 mg/dL
  CRE: 0.6 mg/dL
  Ca: 10.8 mg/dL
  Cl: 106.2 meq/L
  DBIL: 0.006 mg/dL
  GLC: 201.2 mg/dL
  IP: 8.3 mg/dL
  K: 4.7 meq/L
  LDH: 89.8 IU/L
  Na: 139.6 meq/L
  PL: 151.4 mg/dL
  RALB: 4.1 g/dL
  TBIL: 0.3 mg/dL
  TC: 72.2 mg/dL
  TG: 141.2 mg/dL
  TP: 6.3 g/dL
  gamma-GTP: 1 IU/L
[6]
  TERMINAL_BW: 428.5 g
  APTT: 16.9 s
  Bas: 0%
  Eos: 1%
  Fbg: 255.2 mg/dL
  Hb: 15.1 g/dL
  Ht: 45.3%
  Lym: 83.6%
  MCH: 19.6 pg
  MCHC: 33.4%
  MCV: 58.6 fL
  Mono: 3.8%
  Neu: 11.4%
  PT: 11.9 s
  Plat: 101.6 x10_4/uL
  RBC: 774.2 x10_4/ul
  Ret: 3.1%
  WBC: 136.4 x10_2/uL
  KIDNEY_L: 1.5 g
  KIDNEY_R: 1.5 g
  KIDNEY_TOTAL: 3 g
  LIVER: 18.6 g
  A/G: 1.7
  ALP: 678.8 IU/L
  ALT: 31.6 IU/L
  AST: 65 IU/L
  BUN: 21.4 mg/dL
  CRE: 0.7 mg/dL
  Ca: 10.7 mg/dL
  Cl: 107 meq/L
  DBIL: 0.004 mg/dL
  GLC: 185.2 mg/dL
  IP: 7.5 mg/dL
  K: 4.4 meq/L
  LDH: 90.4 IU/L
  Na: 140.4 meq/L
  PL: 157.4 mg/dL
  RALB: 4.3 g/dL
  TBIL: 0.3 mg/dL
  TC: 80 mg/dL
  TG: 179.2 mg/dL
  TP: 6.8 g/dL
  gamma-GTP: 1.8 IU/L
[7]
  TERMINAL_BW: 240.2 g
  APTT: 16.8 s
  Bas: 0%
  Eos: 0.6%
  Fbg: 308.4 mg/dL
  Hb: 12.7 g/dL
  Ht: 38%
  Lym: 68.4%
  MCH: 21.5 pg
  MCHC: 33.5%
  MCV: 64.4 fL
  Mono: 12.4%
  Neu: 18.6%
  PT: 11.1 s
  Plat: 98 x10_4/uL
  RBC: 589.8 x10_4/ul
  Ret: 7.9%
  WBC: 137.8 x10_2/uL
  KIDNEY_L: 1.1 g
  KIDNEY_R: 1.1 g
  KIDNEY_TOTAL: 2.2 g
  LIVER: 12.4 g
  A/G: 1.7
  ALP: 739.2 IU/L
  ALT: 29.8 IU/L
  AST: 54 IU/L
  BUN: 16.2 mg/dL
  CRE: 0.6 mg/dL
  Ca: 10.5 mg/dL
  Cl: 107.6 meq/L
  DBIL: 0.038 mg/dL
  GLC: 191.6 mg/dL
  IP: 8.3 mg/dL
  K: 4.6 meq/L
  LDH: 160.4 IU/L
  Na: 140.4 meq/L
  PL: 147 mg/dL
  RALB: 3.4 g/dL
  TBIL: 0.3 mg/dL
  TC: 76.2 mg/dL
  TG: 135.4 mg/dL
  TP: 5.5 g/dL
  gamma-GTP: 1.6 IU/L
[8]
  TERMINAL_BW: 244 g
  APTT: 18.4 s
  Bas: 0%
  Eos: 0.8%
  Fbg: 377 mg/dL
  Hb: 11.7 g/dL
  Ht: 35%
  Lym: 51.5%
  MCH: 20.4 pg
  MCHC: 33.4%
  MCV: 61.1 fL
  Mono: 12.2%
  Neu: 36%
  PT: 11.8 s
  Plat: 143.2 x10_4/uL
  RBC: 571.8 x10_4/ul
  Ret: 10.2%
  WBC: 128.2 x10_2/uL
  KIDNEY_L: 1.1 g
  KIDNEY_R: 1.1 g
  KIDNEY_TOTAL: 2.2 g
  LIVER: 11.6 g
  A/G: 1.2
  ALP: 1313 IU/L
  ALT: 31.2 IU/L
  AST: 91.5 IU/L
  BUN: 19.8 mg/dL
  CRE: 0.6 mg/dL
  Ca: 10.8 mg/dL
  Cl: 102.2 meq/L
  DBIL: 0.1 mg/dL
  GLC: 169.8 mg/dL
  IP: 11.3 mg/dL
  K: 6.1 meq/L
  LDH: 180.8 IU/L
  Na: 133.5 meq/L
  PL: 135.8 mg/dL
  RALB: 2.9 g/dL
  TBIL: 0.4 mg/dL
  TC: 71 mg/dL
  TG: 106.5 mg/dL
  TP: 5.6 g/dL
  gamma-GTP: 5.8 IU/L
[9]
  PT: 11.3 s
  TBIL: 0.3 mg/dL
  TC: 66.5 mg/dL
